The source made the active and inactive calls. The rule behind the calls is not given here.

The test system of this data set is CCRIS mutagenicity, Ames/micronucleus/aberration tests. In words: CCRIS mutagenicity studies. The source says:
The CCRIS database contains chemical records with carcinogenicity, mutagenicity, tumor promotion, and tumor inhibition test results. It was developed by the National Cancer Institute (NCI). Data are derived from studies cited in primary journals, current awareness tools, NCI reports, and other sources. Test results have been reviewed by experts in carcinogenesis and mutagenesis.
CCRIS provides historical information from the years 1985 - 2011. It is no longer updated.
This is an archive assay for CCRIS mutagenicity studies.

[1] abbreviates: Test System: AMES SALMONELLA TYPHIMURIUM, Strain/Indicator: TA98, Metabolic Activation: NONE, Method: PREINCUBATION
Where [2] appears, read: Test System: AMES SALMONELLA TYPHIMURIUM, Strain/Indicator: TA100, Metabolic Activation: NONE, Method: PREINCUBATION
[3] abbreviates: Test System: AMES SALMONELLA TYPHIMURIUM, Strain/Indicator: TA100, Metabolic Activation: NONE, Method: STANDARD PLATE.
[4] abbreviates: Test System: AMES SALMONELLA TYPHIMURIUM, Strain/Indicator: TA100, Metabolic Activation: S-9, Method: STANDARD PLATE.
Where [5] appears, read: Test System: AMES SALMONELLA TYPHIMURIUM, Strain/Indicator: TA1537, Metabolic Activation: NONE, Method: STANDARD PLATE.
Setting [6] is: Test System: AMES SALMONELLA TYPHIMURIUM, Strain/Indicator: TA1537, Metabolic Activation: S-9, Method: STANDARD PLATE.

Regarding `O=C1C(Cl)=C(Cl)C(=O)C(Cl)=C1Cl`, the mutagenic call is “active; positive (structural changes and ploidy)” (End Point: In vitro chromosomal aberrations, Test System: Chinese hamster lung (CHL/IU) cells, Metabolic Activation: Rat, Liver, S9, Phenobarbital and 5,6-benzoflavone); “inactive; negative” under setting [1]; “inactive; negative” under setting [2]; “active; positive” (Test System: AMES SALMONELLA TYPHIMURIUM, Strain/Indicator: TA100, Metabolic Activation: RAT, LIVER, S-9, PHENOBARBITAL AND 5,6-BENZOFLAVONE, Method: PREINCUBATION); “inactive; negative” (Test System: AMES SALMONELLA TYPHIMURIUM, Strain/Indicator: TA102, Metabolic Activation: NONE, Method: PREINCUBATION); “inactive; negative” (Test System: AMES SALMONELLA TYPHIMURIUM, Strain/Indicator: TA102, Metabolic Activation: RAT, LIVER, S-9, PHENOBARBITAL AND 5,6-BENZOFLAVONE, Method: PREINCUBATION). Further, the mutagenic call (Test System: AMES SALMONELLA TYPHIMURIUM, Strain/Indicator: TA2637, Metabolic Activation: NONE, Method: PREINCUBATION) was “inactive; negative”; the mutagenic call (Test System: AMES SALMONELLA TYPHIMURIUM, Strain/Indicator: TA2637, Metabolic Activation: RAT, LIVER, S-9, PHENOBARBITAL AND 5,6-BENZOFLAVONE, Method: PREINCUBATION) was “inactive; negative”; the mutagenic call (Test System: Ames Salmonella typhimurium, Strain/Indicator: TA98, Metabolic Activation: None, Method: Preincubation) is “inactive; negative”; the mutagenic call (Test System: Ames Salmonella typhimurium, Strain/Indicator: TA98, Metabolic Activation: Rat, Liver, S9, Sodium phenobarbital and 5,6-benzoflavone (10%), Method: Preincubation) was “inactive; negative”; the mutagenic call (Test System: Ames Salmonella typhimurium, Strain/Indicator: TA100, Metabolic Activation: None, Method: Preincubation) is “inactive; negative”; the mutagenic call (Test System: Ames Salmonella typhimurium, Strain/Indicator: TA100, Metabolic Activation: Rat, Liver, S9, Sodium phenobarbital and 5,6-benzoflavone (10%), Method: Preincubation) is “active; positive”. Moreover, the mutagenic call (Test System: Ames Salmonella typhimurium, Strain/Indicator: TA1535, Metabolic Activation: None, Method: Preincubation) was “inactive; negative”; the mutagenic call (Test System: Ames Salmonella typhimurium, Strain/Indicator: TA1535, Metabolic Activation: Rat, Liver, S9, Sodium phenobarbital and 5,6-benzoflavone (10%), Method: Preincubation) is “inactive; negative”; the mutagenic call (Test System: Ames Salmonella typhimurium, Strain/Indicator: TA1537, Metabolic Activation: None, Method: Preincubation) is “inactive; negative”; the mutagenic call (Test System: Ames Salmonella typhimurium, Strain/Indicator: TA1537, Metabolic Activation: Rat, Liver, S9, Sodium phenobarbital and 5,6-benzoflavone (10%), Method: Preincubation) was “inactive; negative”; the mutagenic call (Test System: E. coli, Strain/Indicator: WP2uvrA/pKM101, Metabolic Activation: None, Method: Preincubation) is “inactive; negative”; the mutagenic call (Test System: E. coli, Strain/Indicator: WP2uvrA/pKM101, Metabolic Activation: Rat, Liver, S9, Sodium Phenobarbital and 5,6-benzoflavone, Method: Preincubation) was “inactive; negative”.

As to `CC(=O)Nc1snc2ccc(Cl)cc12`, the mutagenic call runs as follows: (Test System: AMES SALMONELLA TYPHIMURIUM, Strain/Indicator: TA98, Metabolic Activation: NONE, Method: STANDARD PLATE) “inactive; negative”; (Test System: AMES SALMONELLA TYPHIMURIUM, Strain/Indicator: TA98, Metabolic Activation: S-9, Method: STANDARD PLATE) “inactive; negative”; under setting [3], “inactive; negative”; under setting [4], “active; positive”; (Test System: AMES SALMONELLA TYPHIMURIUM, Strain/Indicator: TA1535, Metabolic Activation: NONE, Method: STANDARD PLATE) “inactive; negative”; (Test System: AMES SALMONELLA TYPHIMURIUM, Strain/Indicator: TA1535, Metabolic Activation: S-9, Method: STANDARD PLATE) “inactive; negative”. For the same molecule, the mutagenic call by setting is: under setting [5], “inactive; negative”; under setting [6], “active; positive”.

In the case of `CCCC(=O)Nc1snc2ccc(Cl)cc12`, the mutagenic call is, setting by setting: under setting [3], “inactive; negative”; under setting [4], “inactive; negative”; under setting [5], “inactive; negative”; under setting [6], “inactive; negative”.

On to `OC1CC=Cc2cccnc21` (stereo not given), for which the mutagenic call reads like this: under setting [3], “inactive; negative”; (Test System: AMES SALMONELLA TYPHIMURIUM, Strain/Indicator: TA100, Metabolic Activation: RAT, LIVER, S-9, AROCLOR 1254 (10 OR 20%), Method: STANDARD PLATE) “inactive; negative”.

For `COc1ccc(OC)cc1`, the mutagenic call was “inactive; negative” (Test System: AMES SALMONELLA TYPHIMURIUM, Strain/Indicator: TA98, Metabolic Activation: HAMSTER, LIVER, S-9, AROCLOR 1254, Method: PREINCUBATION); “inactive; negative” under setting [1]; “inactive; negative” (Test System: AMES SALMONELLA TYPHIMURIUM, Strain/Indicator: TA98, Metabolic Activation: RAT, LIVER, S-9, AROCLOR 1254, Method: PREINCUBATION); “inactive; negative” (Test System: AMES SALMONELLA TYPHIMURIUM, Strain/Indicator: TA100, Metabolic Activation: HAMSTER, LIVER, S-9, AROCLOR 1254, Method: PREINCUBATION); “inactive; negative” under setting [2]; “inactive; negative” (Test System: AMES SALMONELLA TYPHIMURIUM, Strain/Indicator: TA100, Metabolic Activation: RAT, LIVER, S-9, AROCLOR 1254, Method: PREINCUBATION). The mutagenic call is “inactive; negative” (Test System: AMES SALMONELLA TYPHIMURIUM, Strain/Indicator: TA1535, Metabolic Activation: HAMSTER, LIVER, S-9, AROCLOR 1254, Method: PREINCUBATION); “inactive; negative” (Test System: AMES SALMONELLA TYPHIMURIUM, Strain/Indicator: TA1535, Metabolic Activation: NONE, Method: PREINCUBATION); “inactive; negative” (Test System: AMES SALMONELLA TYPHIMURIUM, Strain/Indicator: TA1535, Metabolic Activation: RAT, LIVER, S-9, AROCLOR 1254, Method: PREINCUBATION); “inactive; negative” (Test System: AMES SALMONELLA TYPHIMURIUM, Strain/Indicator: TA1537, Metabolic Activation: HAMSTER, LIVER, S-9, AROCLOR 1254, Method: PREINCUBATION); “inactive; negative” (Test System: AMES SALMONELLA TYPHIMURIUM, Strain/Indicator: TA1537, Metabolic Activation: NONE, Method: PREINCUBATION); “inactive; negative” (Test System: AMES SALMONELLA TYPHIMURIUM, Strain/Indicator: TA1537, Metabolic Activation: RAT, LIVER, S-9, AROCLOR 1254, Method: PREINCUBATION).

As to `CCc1c2ccccc2cc2c1c1c(c3ccccc32)O1`, the mutagenic call under setting [1] was “active; positive”.

(Values after PubChem BioAssay AID1259407 (Chemical Carcinogenesis Research Information System (CCRIS), 2018).)
